Four molecules from patent publication US20100068545A1, “Compositions and methods for wood preservation” (priority 2005, published 2010) can be followed below.

In one test the test system is decay fungi. The test is described as follows: AWPA E7-01 field stake test, decay ratings, Gainesville, Florida. Type of test: in vivo. Further details: scale not given here. The protocol: (§1) Preservative treating solutions were prepared by the mixing the concentrates in Example 1 with ethanol. The treated stakes were installed in Gainesville, Fla. for field performance evaluation following the procedure described in American Wood Preservers' Association (AWPA) Standard E7-01: “Standard Method of Evaluating Wood Preservatives by Field Tests with Stakes”.
(§2) Preservative treating solutions were prepared by the mixing the concentrates in Example 1 with toluene. The treated stakes were installed in Gainesville, Fla. for field performance evaluation following the procedure described in American Wood Preservers' Association (AWPA) Standard E7-01: “Standard Method of Evaluating Wood Preservatives by Field Tests with Stakes”.
Preservative treating solutions were prepared by the mixing the concentrates in Example 2 and 13. The treated stakes were installed in Gainesville, Fla. for field performance evaluation following the procedure described in American Wood Preservers' Association (AWPA) Standard E7-01: “Standard Method of Evaluating Wood Preservatives by Field Tests with Stakes”. […]

A further test concerns termites. The experiment in a line: AWPA E7-01 field stake test, termite ratings, Gainesville, Florida. Further details: scale not given here. The test is classed as in vivo. The protocol:
as §1, §2
Preservative treating solutions were prepared by the mixing the concentrates in Example 2 and 13. The treated stakes were installed in Gainesville, Fla. for field performance evaluation following the procedure described in American Wood Preservers' Association (AWPA) Standard E7-01: “Standard Method of Evaluating Wood Preservatives by Field Tests with Stakes”.
Preservative treating solutions were prepared by the mixing the concentrates in Example 1 with white spirits. The treated stakes were installed in Gainesville, Fla. for field performance evaluation following the procedure described in American Wood Preservers' Association (AWPA) Standard E7-01: “Standard Method of Evaluating Wood Preservatives by Field Tests with Stakes”.

Another test relates to brown rots or white rots. The test is described as follows: Accelerated decay testing in the lab. Conditions: pyrethroid insecticide alone. The text has this:
Provided herein is an organic composition and method for use thereof in treatment of cellulosic material, more particularly wood. The composition comprises an azole or quaternary ammonium fungicide compound, and a pyrethroid insecticide. The composition imparts to the treated wood resistance to both fungi and insects. […] This has been confirmed by accelerated decay testing in the lab.

[1] abbreviates: 12 months, retention 0.32 kg/m^3, Ex. 14, ethanol solution.
Setting [2] is: 12 months, retention 0.32 kg/m^3, Ex. 15, toluene solution.
Setting [3] is: 12 months, retention 0.32 kg/m^3, Ex. 16, concentrates of Ex. 2 and 13.
Setting [4] is: 12 months, retention 0.48 kg/m^3, Ex. 14, ethanol solution.
Setting [5] is: 12 months, retention 0.48 kg/m^3, Ex. 15, toluene solution.
[6] abbreviates: 12 months, retention 0.48 kg/m^3, Ex. 16, concentrates of Ex. 2 and 13.
[7] abbreviates: 12 months, retention 0.64 kg/m^3, Ex. 14, ethanol solution.
The mark [8] stands for this setting: 12 months, retention 0.64 kg/m^3, Ex. 15, toluene solution.
The mark [9] stands for this setting: 12 months, retention 0.64 kg/m^3, Ex. 16, concentrates of Ex. 2 and 13.
The mark [10] stands for this setting: 24 months, retention 0.32 kg/m^3, Ex. 14, ethanol solution.
Where [11] appears, read: 24 months, retention 0.32 kg/m^3, Ex. 15, toluene solution.
[12] abbreviates: 24 months, retention 0.32 kg/m^3, Ex. 16, concentrates of Ex. 2 and 13.
Where [13] appears, read: 24 months, retention 0.48 kg/m^3, Ex. 14, ethanol solution.
Where [14] appears, read: 24 months, retention 0.48 kg/m^3, Ex. 15, toluene solution.
Setting [15] is: 24 months, retention 0.48 kg/m^3, Ex. 16, concentrates of Ex. 2 and 13.
[16] abbreviates: 24 months, retention 0.64 kg/m^3, Ex. 14, ethanol solution.
[17] abbreviates: 24 months, retention 0.64 kg/m^3, Ex. 15, toluene solution.
Setting [18] is: 24 months, retention 0.64 kg/m^3, Ex. 16, concentrates of Ex. 2 and 13.
The mark [19] stands for this setting: 36 months, retention 0.32 kg/m^3, Ex. 14, ethanol solution.
The mark [20] stands for this setting: 36 months, retention 0.32 kg/m^3, Ex. 15, toluene solution.
The mark [21] stands for this setting: 36 months, retention 0.32 kg/m^3, Ex. 16, concentrates of Ex. 2 and 13.
The mark [22] stands for this setting: 36 months, retention 0.48 kg/m^3, Ex. 14, ethanol solution.
[23] abbreviates: 36 months, retention 0.48 kg/m^3, Ex. 15, toluene solution.
The mark [24] stands for this setting: 36 months, retention 0.48 kg/m^3, Ex. 16, concentrates of Ex. 2 and 13.
Setting [25] is: 36 months, retention 0.64 kg/m^3, Ex. 14, ethanol solution.
Setting [26] is: 36 months, retention 0.64 kg/m^3, Ex. 15, toluene solution.
[27] abbreviates: 36 months, retention 0.64 kg/m^3, Ex. 16, concentrates of Ex. 2 and 13.
The mark [28] stands for this setting: 48 months, retention 0.32 kg/m^3, Ex. 14, ethanol solution.
Where [29] appears, read: 48 months, retention 0.32 kg/m^3, Ex. 15, toluene solution.
Where [30] appears, read: 48 months, retention 0.32 kg/m^3, Ex. 16, concentrates of Ex. 2 and 13.
Where [31] appears, read: 48 months, retention 0.48 kg/m^3, Ex. 14, ethanol solution.
The mark [32] stands for this setting: 48 months, retention 0.48 kg/m^3, Ex. 15, toluene solution.
Setting [33] is: 48 months, retention 0.48 kg/m^3, Ex. 16, concentrates of Ex. 2 and 13.
Setting [34] is: 48 months, retention 0.64 kg/m^3, Ex. 14, ethanol solution.
The mark [35] stands for this setting: 48 months, retention 0.64 kg/m^3, Ex. 15, toluene solution.
[36] abbreviates: 48 months, retention 0.64 kg/m^3, Ex. 16, concentrates of Ex. 2 and 13.

For the molecule `CC(C)(C)C(O)(CCc1ccc(Cl)cc1)Cn1cncn1` (racemic) [Tebuconazole, (RS)-1-p-chlorophenyl-4,4-dimethyl-3-(1H-1,2,4-triazol-1-ylmethyl)pentan-3-ol], the “Average Decay Rating” value in the test with decay fungi (setting [1]) was 8.2; with decay fungi (setting [2]), 8.2; in the test with decay fungi (setting [3]) it was 8.2; in the test on decay fungi (setting [4]), 5.8; in the test with decay fungi (setting [5]), 5.8; with decay fungi (setting [6]), 5.8. For the same molecule, the “Average Decay Rating” value in the test on decay fungi (setting [7]) is listed as 8.7; with decay fungi (setting [8]) it was 8.7; with decay fungi (setting [9]) it was 8.7; in the test with decay fungi (setting [10]), 2.6; in the test with decay fungi (setting [11]), 2.6; in the test with decay fungi (setting [12]), 2.6. Besides, the “Average Decay Rating” value is reported as 0.8 in the test with decay fungi (setting [13]); 0.8 in the test on decay fungi (setting [14]); 0.8 in the test on decay fungi (setting [15]); 1.2 in the test with decay fungi (setting [16]); 1.2 in the test with decay fungi (setting [17]); 1.2 with decay fungi (setting [18]). Further, the “Average Decay Rating” value in the test on decay fungi (setting [19]), in the test on decay fungi (setting [20]), with decay fungi (setting [21]), in the test on decay fungi (setting [22]), in the test with decay fungi (setting [23]) and in the test on decay fungi (setting [24]) was 0.0 throughout. Further, the “Average Decay Rating” value in the test on decay fungi (setting [25]), in the test on decay fungi (setting [26]), in the test with decay fungi (setting [27]), with decay fungi (setting [28]), in the test on decay fungi (setting [29]) and with decay fungi (setting [30]) was 0.0 throughout. Also, the “Average Decay Rating” value with decay fungi (setting [31]), in the test with decay fungi (setting [32]), in the test on decay fungi (setting [33]), with decay fungi (setting [34]), with decay fungi (setting [35]) and with decay fungi (setting [36]) was 0.0 each time. For the same molecule, the “Average Termite Rating” value came to 4.2 with termites (setting [1]); 4.2 with termites (setting [2]); 4.2 in the test with termites (setting [3]); 4.5 in the test on termites (setting [4]); 4.5 in the test with termites (setting [5]); 4.5 with termites (setting [6]). Moreover, the “Average Termite Rating” value in the test with termites (setting [7]) is reported as 4.8; in the test with termites (setting [8]) it was 4.8; in the test with termites (setting [9]), 4.8; in the test on termites (setting [10]) it was 0.6; in the test on termites (setting [11]) it was 0.6; with termites (setting [12]), 0.6. Further, the “Average Termite Rating” value in the test on termites (setting [13]) worked out at 1.2; with termites (setting [14]) it was 1.2; in the test on termites (setting [15]) it was 1.2; in the test with termites (setting [16]), 2.0; with termites (setting [17]) it was 2.0; in the test on termites (setting [18]), 2.0. Moreover, the “Average Termite Rating” value with termites (setting [19]), in the test with termites (setting [20]), in the test with termites (setting [21]), in the test with termites (setting [22]), with termites (setting [23]) and with termites (setting [24]) was 0.0 each time. Moreover, the “Average Termite Rating” value in the test on termites (setting [25]), in the test with termites (setting [26]), in the test with termites (setting [27]), in the test on termites (setting [28]), with termites (setting [29]) and with termites (setting [30]) was 0.0 each time. For the same molecule, the “Average Termite Rating” value in the test with termites (setting [31]), in the test with termites (setting [32]), in the test on termites (setting [33]), in the test on termites (setting [34]), with termites (setting [35]) and with termites (setting [36]) was 0.0 throughout.

Turning to `CC1(C)C(C=C(Cl)Cl)C1C(=O)OC(C#N)c1cccc(Oc2ccccc2)c1` (stereo not drawn) [cypermethrin], the “Fungicidal activity against brown rots or white rots” value (from here on “Fungicidal activity”) in the test with brown rots or white rots is on record as “generally do not have fungicidal activity”.

Consider `Cc1c(COC(=O)[C@@H]2[C@H](/C=C(\Cl)C(F)(F)F)C2(C)C)cccc1-c1ccccc1` (racemic) [bifenthrin], for which the “Fungicidal activity” value in the test on brown rots or white rots is “generally do not have fungicidal activity”.

Regarding `CC1(C)C(C=C(Cl)Cl)C1C(=O)OCc1cccc(Oc2ccccc2)c1` (stereo not drawn) [permethrin], the “Fungicidal activity” value in the test with brown rots or white rots is given as “generally do not have fungicidal activity”.
